In the NIST ThermoML archive (doi:10.1016/j.jct.2017.06.002):
Numbers after ± are expanded uncertainties.

Experiment: xn = mol fraction of the nth substance listed
Details: 100 kPa, Liquid; for viscosity: Concentric cylinders viscometry; for mass density: Vibrating tube method

COCOCOCOCOC [2,4,6,8,10-pentaoxaundecane] + COCOCOC showed a viscosity (288.15 K, x2 = 0) of 2.207 ± 0.051 mPa·s, a viscosity (288.15 K, x2 = 0.12) of 1.99 ± 0.062 mPa·s and a viscosity (288.15 K, x2 = 0.24) of 1.788 ± 0.061 mPa·s. For the same molecule, the viscosity (288.15 K, x2 = 0.35) was 1.608 ± 0.06 mPa·s, the viscosity (288.15 K, x2 = 0.45) was 1.449 ± 0.058 mPa·s and the viscosity (288.15 K, x2 = 0.55) was 1.318 ± 0.056 mPa·s. For the same molecule, the viscosity (288.15 K, x2 = 0.65) was 1.209 ± 0.055 mPa·s, the viscosity (288.15 K, x2 = 0.74) was 1.119 ± 0.054 mPa·s and the viscosity (288.15 K, x2 = 0.83) was 1.043 ± 0.053 mPa·s. The viscosity (288.15 K, x2 = 0.92) was 0.977 ± 0.052 mPa·s, the mass density (288.15 K, x2 = 0) was 1078.8 ± 2 kg/m3 and the mass density (288.15 K, x2 = 0.12) was 1069.8 ± 2.5 kg/m3. It also gave a mass density (288.15 K, x2 = 0.24) of 1061.6 ± 2.5 kg/m3, a mass density (288.15 K, x2 = 0.35) of 1053.5 ± 2.5 kg/m3 and a mass density (288.15 K, x2 = 0.45) of 1045.4 ± 2.6 kg/m3. For the same molecule, the mass density (288.15 K, x2 = 0.55) was 1037.2 ± 2.6 kg/m3, the mass density (288.15 K, x2 = 0.65) was 1029 ± 2.6 kg/m3 and the mass density (288.15 K, x2 = 0.74) was 1021 ± 2.7 kg/m3. For the same molecule, the mass density (288.15 K, x2 = 0.83) was 1013.2 ± 2.6 kg/m3, the mass density (288.15 K, x2 = 0.92) was 1005.8 ± 2.6 kg/m3 and the viscosity (293.15 K, x2 = 0) was 2.015 ± 0.051 mPa·s. The viscosity (293.15 K, x2 = 0.12) was 1.835 ± 0.058 mPa·s, the viscosity (293.15 K, x2 = 0.24) was 1.669 ± 0.058 mPa·s and the viscosity (293.15 K, x2 = 0.35) was 1.518 ± 0.058 mPa·s. The viscosity (293.15 K, x2 = 0.45) was 1.378 ± 0.057 mPa·s, the viscosity (293.15 K, x2 = 0.55) was 1.265 ± 0.055 mPa·s and the viscosity (293.15 K, x2 = 0.65) was 1.166 ± 0.054 mPa·s. The viscosity (293.15 K, x2 = 0.74) was 1.082 ± 0.053 mPa·s, the viscosity (293.15 K, x2 = 0.83) was 1.019 ± 0.052 mPa·s and the viscosity (293.15 K, x2 = 0.92) was 0.962 ± 0.052 mPa·s. It also gave a mass density (293.15 K, x2 = 0) of 1073.3 ± 2 kg/m3, a mass density (293.15 K, x2 = 0.12) of 1064.6 ± 2.4 kg/m3 and a mass density (293.15 K, x2 = 0.24) of 1056.5 ± 2.4 kg/m3. For the same molecule, the mass density (293.15 K, x2 = 0.35) was 1048.6 ± 2.5 kg/m3, the mass density (293.15 K, x2 = 0.45) was 1040.6 ± 2.6 kg/m3 and the mass density (293.15 K, x2 = 0.55) was 1032.6 ± 2.6 kg/m3. The mass density (293.15 K, x2 = 0.65) was 1024.6 ± 2.6 kg/m3, the mass density (293.15 K, x2 = 0.74) was 1016.7 ± 2.6 kg/m3 and the mass density (293.15 K, x2 = 0.83) was 1009 ± 2.6 kg/m3. The mass density (293.15 K, x2 = 0.92) was 1001.8 ± 2.6 kg/m3, the viscosity (298.15 K, x2 = 0) was 1.848 ± 0.051 mPa·s and the viscosity (298.15 K, x2 = 0.12) was 1.697 ± 0.056 mPa·s. The viscosity (298.15 K, x2 = 0.24) was 1.557 ± 0.056 mPa·s, the viscosity (298.15 K, x2 = 0.35) was 1.43 ± 0.056 mPa·s and the viscosity (298.15 K, x2 = 0.45) was 1.315 ± 0.055 mPa·s. For the same molecule, the viscosity (298.15 K, x2 = 0.55) was 1.212 ± 0.054 mPa·s, the viscosity (298.15 K, x2 = 0.65) was 1.125 ± 0.053 mPa·s and the viscosity (298.15 K, x2 = 0.74) was 1.05 ± 0.053 mPa·s. For the same molecule, the viscosity (298.15 K, x2 = 0.83) was 0.9918 ± 0.052 mPa·s, the viscosity (298.15 K, x2 = 0.92) was 0.943 ± 0.051 mPa·s and the mass density (298.15 K, x2 = 0) was 1068.2 ± 2 kg/m3. It also gave a mass density (298.15 K, x2 = 0.12) of 1059.7 ± 2.4 kg/m3, a mass density (298.15 K, x2 = 0.24) of 1051.9 ± 2.4 kg/m3 and a mass density (298.15 K, x2 = 0.35) of 1043.9 ± 2.5 kg/m3. For the same molecule, the mass density (298.15 K, x2 = 0.45) was 1036 ± 2.6 kg/m3, the mass density (298.15 K, x2 = 0.55) was 1028 ± 2.6 kg/m3 and the mass density (298.15 K, x2 = 0.65) was 1020.1 ± 2.6 kg/m3. It also gave a mass density (298.15 K, x2 = 0.74) of 1012.1 ± 2.7 kg/m3, a mass density (298.15 K, x2 = 0.83) of 1004.4 ± 2.6 kg/m3 and a mass density (298.15 K, x2 = 0.92) of 996.8 ± 2.6 kg/m3. For the same molecule, the viscosity (303.15 K, x2 = 0) was 1.703 ± 0.051 mPa·s, the viscosity (303.15 K, x2 = 0.12) was 1.575 ± 0.055 mPa·s and the viscosity (303.15 K, x2 = 0.24) was 1.452 ± 0.055 mPa·s. It also gave a viscosity (303.15 K, x2 = 0.35) of 1.344 ± 0.054 mPa·s, a viscosity (303.15 K, x2 = 0.45) of 1.243 ± 0.054 mPa·s and a viscosity (303.15 K, x2 = 0.55) of 1.153 ± 0.053 mPa·s. It also gave a viscosity (303.15 K, x2 = 0.65) of 1.079 ± 0.053 mPa·s, a viscosity (303.15 K, x2 = 0.74) of 1.017 ± 0.052 mPa·s and a viscosity (303.15 K, x2 = 0.83) of 0.97 ± 0.051 mPa·s. The viscosity (303.15 K, x2 = 0.92) was 0.9255 ± 0.051 mPa·s, the mass density (303.15 K, x2 = 0) was 1063.4 ± 2 kg/m3 and the mass density (303.15 K, x2 = 0.12) was 1055.2 ± 2.4 kg/m3. For the same molecule, the mass density (303.15 K, x2 = 0.24) was 1047.3 ± 2.4 kg/m3, the mass density (303.15 K, x2 = 0.35) was 1039.4 ± 2.5 kg/m3 and the mass density (303.15 K, x2 = 0.45) was 1031.5 ± 2.6 kg/m3. For the same molecule, the mass density (303.15 K, x2 = 0.55) was 1023.5 ± 2.6 kg/m3, the mass density (303.15 K, x2 = 0.65) was 1015.4 ± 2.6 kg/m3 and the mass density (303.15 K, x2 = 0.74) was 1007.4 ± 2.7 kg/m3. For the same molecule, the mass density (303.15 K, x2 = 0.83) was 999.4 ± 2.7 kg/m3, the mass density (303.15 K, x2 = 0.92) was 991.7 ± 2.7 kg/m3 and the viscosity (308.15 K, x2 = 0) was 1.576 ± 0.051 mPa·s. It also gave a viscosity (308.15 K, x2 = 0.12) of 1.466 ± 0.054 mPa·s, a viscosity (308.15 K, x2 = 0.24) of 1.361 ± 0.054 mPa·s and a viscosity (308.15 K, x2 = 0.35) of 1.264 ± 0.054 mPa·s. For the same molecule, the viscosity (308.15 K, x2 = 0.45) was 1.175 ± 0.053 mPa·s, the viscosity (308.15 K, x2 = 0.55) was 1.099 ± 0.052 mPa·s and the viscosity (308.15 K, x2 = 0.65) was 1.036 ± 0.052 mPa·s. It also gave a viscosity (308.15 K, x2 = 0.74) of 0.9843 ± 0.051 mPa·s, a viscosity (308.15 K, x2 = 0.83) of 0.943 ± 0.051 mPa·s and a viscosity (308.15 K, x2 = 0.92) of 0.9043 ± 0.051 mPa·s. For the same molecule, the mass density (308.15 K, x2 = 0) was 1059.1 ± 2 kg/m3, the mass density (308.15 K, x2 = 0.12) was 1050.9 ± 2.4 kg/m3 and the mass density (308.15 K, x2 = 0.24) was 1043 ± 2.4 kg/m3. It also gave a mass density (308.15 K, x2 = 0.35) of 1035 ± 2.5 kg/m3, a mass density (308.15 K, x2 = 0.45) of 1027.2 ± 2.6 kg/m3 and a mass density (308.15 K, x2 = 0.55) of 1019.2 ± 2.6 kg/m3. For the same molecule, the mass density (308.15 K, x2 = 0.65) was 1011.3 ± 2.6 kg/m3, the mass density (308.15 K, x2 = 0.74) was 1003.2 ± 2.7 kg/m3 and the mass density (308.15 K, x2 = 0.83) was 995 ± 2.7 kg/m3. For the same molecule, the mass density (308.15 K, x2 = 0.92) was 986.9 ± 2.8 kg/m3, the viscosity (313.15 K, x2 = 0) was 1.464 ± 0.051 mPa·s and the viscosity (313.15 K, x2 = 0.12) was 1.371 ± 0.053 mPa·s. The viscosity (313.15 K, x2 = 0.24) was 1.278 ± 0.053 mPa·s, the viscosity (313.15 K, x2 = 0.35) was 1.194 ± 0.053 mPa·s and the viscosity (313.15 K, x2 = 0.45) was 1.117 ± 0.053 mPa·s. For the same molecule, the viscosity (313.15 K, x2 = 0.55) was 1.05 ± 0.052 mPa·s, the viscosity (313.15 K, x2 = 0.65) was 0.9955 ± 0.051 mPa·s and the viscosity (313.15 K, x2 = 0.74) was 0.9504 ± 0.051 mPa·s. The viscosity (313.15 K, x2 = 0.83) was 0.916 ± 0.051 mPa·s, the viscosity (313.15 K, x2 = 0.92) was 0.8847 ± 0.051 mPa·s and the mass density (313.15 K, x2 = 0) was 1055.2 ± 2 kg/m3. For the same molecule, the mass density (313.15 K, x2 = 0.12) was 1047.2 ± 2.4 kg/m3, the mass density (313.15 K, x2 = 0.24) was 1039.4 ± 2.4 kg/m3 and the mass density (313.15 K, x2 = 0.35) was 1031.5 ± 2.5 kg/m3. It also gave a mass density (313.15 K, x2 = 0.45) of 1023.7 ± 2.5 kg/m3, a mass density (313.15 K, x2 = 0.55) of 1015.8 ± 2.6 kg/m3 and a mass density (313.15 K, x2 = 0.65) of 1007.9 ± 2.6 kg/m3. The mass density (313.15 K, x2 = 0.74) was 999.8 ± 2.7 kg/m3, the mass density (313.15 K, x2 = 0.83) was 991.3 ± 2.8 kg/m3 and the mass density (313.15 K, x2 = 0.92) was 982.8 ± 2.8 kg/m3.
